Columns and labels:
Type in all cases: in vivo
[1] = tested on: Alopecurus myosuroides (ALOMY); experiment: B1 Pre-emergence herbicidal activity; parameters: key: 5=total damage to plant; 0=no damage to plant; details: pre-emergence application, rate 1000 g/ha, evaluated after 13 days
How it was run: (§1)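 Seeds sown in standard soil in pots, held one day in a glasshouse (24/16 °C day/night, 14 h light, 65% humidity), then sprayed pre-emergence with compound in acetone/water (50:50) with 0.5% Tween 20. Plants grown under the same conditions, watered twice daily; damage scored after 13 days (0 = none, 5 = total).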

[2] = tested on: Avena fatua (AVEFA); experiment: B1 Pre-emergence herbicidal activity; parameters: key: 5=total damage to plant; 0=no damage to plant; details: pre-emergence application, rate 1000 g/ha, evaluated after 13 days
How it was run: as §1

[3] = tested on: Triticum aestivium (TRZAW); experiment: B1 Pre-emergence herbicidal activity; parameters: key: 5=total damage to plant; 0=no damage to plant; details: pre-emergence application, rate 1000 g/ha, evaluated after 13 days
How it was run: as §1

[4] = tested on: Echinochloa crus-galli (ECHCG); experiment: B1 Pre-emergence herbicidal activity; parameters: key to Pre-emergence herbicidal activity, ECHCG (damage score 0-5): 5=total damage to plant; 0=no damage to plant; details: pre-emergence application, rate 1000 g/ha, evaluated after 13 days
How it was run: as §1

[5] = tested on: Lolium perenne (LOLPE); experiment: B1 Pre-emergence herbicidal activity; parameters: key to Pre-emergence herbicidal activity, LOLPE (damage score 0-5): 5=total damage to plant; 0=no damage to plant; details: pre-emergence application, rate 1000 g/ha, evaluated after 13 days
How it was run: as §1

[6] = tested on: Setaria fabenr (SETFA); experiment: B1 Pre-emergence herbicidal activity; parameters: key to Pre-emergence herbicidal activity, SETFA (damage score 0-5): 5=total damage to plant; 0=no damage to plant; details: pre-emergence application, rate 1000 g/ha, evaluated after 13 days
How it was run: as §1

[7] = tested on: Avena fatua (AVEFA); experiment: B2 Post-emergence herbicidal activity; details: post-emergence application, rate 1000 g/ha, evaluated after 13 days
Description: (§2) Seeds of a variety of test species were sown in standard soil in pots: Triticum aestivium (TRZAW), Avena fatua (AVEFA), Alopecurus myosuroides (ALOMY), Echinochloa crus-galli (ECHCG), Lolium perenne (LOLPE), Zea Mays (ZEAMX), Abutilon theophrasti (ABUTH), Amaranthus retroflexus (AMARE) and Setaria fabenri (SETFA). After 8 days cultivation (post-emergence) under controlled conditions in a glasshouse (at 24/16° C., day/night; 14 hours light; 65% humidity), the plants were sprayed with an aqueous spray solution derived from the formulation of the technical active ingredient in acetone I water (50:50) solution containing 0.5% Tween 20 (polyoxyethelyene sorbitan monolaurate, CAS RN 9005-64-5). The test plants were then grown in a glasshouse under controlled conditions (at 24/16° C., day/night; 14 hours light; 65% humidity) and watered twice daily. After 13 days, the test was evaluated (5=total damage to plant; 0=no damage to plant).

[8] = tested on: Echinochloa crus-galli (ECHCG); experiment: B2 Post-emergence herbicidal activity; parameters: key to Post-emergence herbicidal activity, ECHCG (damage score 0-5): 5=total damage to plant; 0=no damage to plant; details: post-emergence application, rate 1000 g/ha, evaluated after 13 days
How it was run: (§3)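 Plants grown 8 days in standard soil in pots, then sprayed post-emergence with active ingredient in acetone/water (50:50) with 0.5% Tween 20. Glasshouse at 24/16 °C day/night, 14 h light, 65% humidity, watered twice daily. Damage scored after 13 days on a 0–5 scale (5 = total damage).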

[9] = tested on: Lolium perenne (LOLPE); experiment: B2 Post-emergence herbicidal activity; details: post-emergence application, rate 1000 g/ha, evaluated after 13 days
Description: as §2

[10] = tested on: Alopecurus myosuroides (ALOMY); experiment: B2 Post-emergence herbicidal activity; parameters: key: 5=total damage to plant; 0=no damage to plant; details: post-emergence application, rate 1000 g/ha, evaluated after 13 days
How it was run: as §3

[11] = tested on: Setaria fabenri (SETFA); experiment: B2 Post-emergence herbicidal activity; parameters: key: 5=total damage to plant; 0=no damage to plant; details: post-emergence application, rate 1000 g/ha, evaluated after 13 days
How it was run: as §3

[12] = tested on: Triticum aestivium (TRZAW); experiment: B2 Post-emergence herbicidal activity; parameters: key: 5=total damage to plant; 0=no damage to plant; details: post-emergence application, rate 1000 g/ha, evaluated after 13 days
How it was run: as §3

SMILES | Pre-emergence herbicidal activity, ALOMY (damage score 0-5) [1] | Pre-emergence herbicidal activity, AVEFA (damage score 0-5) [2] | Pre-emergence herbicidal activity, TRAZW (damage score 0-5) [3] | Pre-emergence herbicidal activity, ECHCG (damage score 0-5) [4] | Pre-emergence herbicidal activity, LOLPE (damage score 0-5) [5] | Pre-emergence herbicidal activity, SETFA (damage score 0-5) [6] | Post-emergence herbicidal activity, AVEFA (damage score 0-5) [7] | Post-emergence herbicidal activity, ECHCG (damage score 0-5) [8] | Post-emergence herbicidal activity, LOLPE (damage score 0-5) [9] | Post-emergence herbicidal activity, ALOMY (damage score 0-5) [10] | Post-emergence herbicidal activity, SETFA (damage score 0-5) [11] | Post-emergence herbicidal activity, TRAZW (damage score 0-5) [12]
O=C(Nc1ccc(-c2cncc(F)c2)nc1C(F)(F)F)c1ccccn1 [Compound C45] | 0 | 2 | 0 | 5 | 1 | 4 | 2 | 5 | 2 | 0 | 5 | 1
CCC(=O)N(CC#N)c1ccc(-c2cncc(F)c2)nc1C(F)(F)F [Compound C57] | 0 | 1 | 0 | 3 | 0 | 4 | 2 | 4 | 2 | 0 | 4 | 0
COCC(=O)Nc1ccc(-c2cncc(F)c2)nc1C#N [Compound C114, N-[2-cyano-6-(5-fluoro-3-pyridyl)-3-pyridyl]-2-methoxy-acetamide] | 0 | 1 | 0 | 4 | 0 | 5 | 2 | 4 | 1 | 1 | 5 | 1
O=C1CCC(=O)N1c1ccc(-c2cncnc2)nc1C(F)(F)F [Compound C110] | 0 | 3 | 0 | 4 | 1 | 4 | 3 | 5 | 2 | 0 | 5 | 1
CC(C)C(=O)Nc1ccc(-c2cncc(Cl)c2)nc1C(F)(F)F [Compound C12] | 0 | 0 | 0 | 2 | 1 | 4 | 3 | 5 | 2 | 1 | 5 | 0
O=C(O)CCC(=O)Nc1ccc(-c2cncc(F)c2)nc1C(F)(F)F [Compound C113, 4-[[6-(5-fluoro-3-pyridyl)-2-(trifluoromethyl)-3-pyridyl]amino]-4-oxo-butanoic acid] | 0 | 2 | 0 | 5 | 1 | 5 | 4 | 5 | 3 | 1 | 5 | 3
C=CCN(C(=O)COC)c1ccc(-c2cncc(F)c2)nc1C(F)(F)F [Compound C63] | 0 | 0 | 0 | 2 | 1 | 4 | 2 | 4 | 2 | 1 | 4 | 0
O=C(COc1ccccc1)Nc1ccc(-c2cncc(F)c2)nc1C(F)(F)F [Compound C28] | 0 | 3 | 0 | 4 | 1 | 4 | 4 | 5 | 3 | 0 | 5 | 0
Cc1ccsc1C(=O)Nc1ccc(-c2cncc(F)c2)nc1C(F)(F)F [Compound C51] | 0 | 0 | 0 | 3 | 0 | 4 | 2 | 2 | 1 | 0 | 4 | 0
CC(=O)N(C(C)=O)c1ccc(-c2cncc(F)c2)nc1C(F)(F)F [Compound C5, N-acetyl-N-[6-(5-fluoro-3-pyridyl)-2-(trifluoromethyl)-3-pyridyl]acetamide] | 1 | 3 | 0 | 4 | 1 | 5 | 4 | 4 | 4 | 1 | 5 | 0
COCCC(=O)Nc1ccc(-c2cncc(F)c2)nc1C(F)(F)F [Compound C24] | 1 | 4 | 0 | 4 | 1 | 5 | 4 | 5 | 4 | 1 | 5 | 1

From patent US11230538B2, “Herbicides” (SYNGENTA PARTICIPATIONS AG, priority 2016, dated 2022)
